Read-outs that look alike come from different tables or passages of the source.
Tests used:
[1] = tested on: Staphylococcus aureus (S. aureus) 11540 strain; assay: Standard microdilution assay, MIC against S. aureus 11540; assay type: cell-based; settings: read-out: MIC S. aureus
Method in brief: (§1)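 Scoring as + or − used a 16 micrograms/mL cutoff on minimum inhibitory concentrations. These came from CLSI-standard microdilution, quality-controlled with reference strains tested in the same run.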

[2] = tested on: Eschericia coli (E. coli) strain ATCC25922; assay: Standard microdilution assay, MIC against E. coli ATCC25922; assay type: cell-based; settings: Escherichia coli
Method in brief: as §1

[3] = S. aureus 11540 strain, standard microdilution assay, cutoff 16 micrograms/mL
[4] = E. coli strain ATCC25922, standard microdilution assay, cutoff 16 micrograms/mL, read-out: MIC E. Coli

Row | MIC [1, 3] [mg/L] | MIC [2, 4] [mg/L] | Compound | MIC [1] [mg/L] | MIC ([2]; ATCC25922, read-out: MIC E. Coli) [mg/L]
1 | < 16 | < 16 | C[C@H](N)CCCc1cc(Cl)c(F)c(-c2cc3cn(-c4ccc(CN5CC[C@H](CN)NC5=N)cc4)c(=O)nc3[nH]2)c1 [Compound 417] |  | 
2 | < 16 | < 16 | C[C@H](N)CCCc1cc(Cl)c(F)c(-c2cc3cn(-c4ccc(CN[C@H](CCN)CNc5nccs5)cc4)c(=O)nc3[nH]2)c1 [Compound 490] |  | 
3 | < 16 | < 16 | C[C@H](N)CCCc1cc(OC(F)(F)F)c(F)c(-c2cc3cn(-c4ccc([C@H](C)NCC[C@@H](CNC(=O)CN)NC(=N)N)cc4)c(=O)nc3[nH]2)c1 [Compound 423] |  | 
4 | < 16 | < 16 | C[C@H](N)CCCc1cc(OC(F)(F)F)c(F)c(-c2cc3cn(-c4ccc([C@H](C)NCC[C@H](CCN)NC(=N)N)cc4)c(=O)nc3[nH]2)c1 [Compound 325] |  | 
5 | < 16 | < 16 | C[C@H](N)CCCc1cc(Cl)c(F)c(-c2cc3cn(-c4ccc([C@@H]5CCC[C@@H](CNCC6CCCC6)N5)cc4)c(=O)nc3[nH]2)c1 [Compound 559] |  | 
6 | < 16 | > 16 | C[C@H](N)CCCc1cc(Cl)c(F)c(-c2cc3cn(-c4ccc([C@@H]5CCC[C@@H](CC#N)N5)cc4)c(=O)nc3[nH]2)c1 [Compound 498] |  | 
7 |  |  | C[C@H](NCCCNC(=N)N)c1ccc(-n2cc3cc(-c4cc(CCC[C@@H](N)COP(=O)(Oc5ccccc5)Oc5ccccc5)cc(Cl)c4F)[nH]c3nc2=O)cc1 [Compound 488] | < 16 | < 16
8 | < 16 | < 16 | C[C@H](N)CCCc1cc(Cl)c(F)c(-c2cc3cn(-c4ccc([C@@H](N)CCCN)cc4)c(=O)nc3[nH]2)c1 [Compound 410] |  | 
9 | < 16 | < 16 | C[C@H](N)CCCc1cc(OC(F)(F)F)c(F)c(-c2cc3cn(-c4ccc([C@@H](N)CCN)cc4)c(=O)nc3[nH]2)c1 [Compound 426] |  | 
10 | < 16 | < 16 | C[C@H](N)CCCc1cc(Cl)c(F)c(-c2cc3cn(-c4ccc(C5=NCCCN5)cc4)c(=O)nc3[nH]2)c1 [Compound 564] |  | 
11 | < 16 | < 16 | COCC[C@H](CCN[C@@H](C)c1ccc(-n2cc3cc(-c4cc(CCC[C@H](C)N)cc(OC(F)(F)F)c4F)[nH]c3nc2=O)cc1)NC(=N)N [Compound 350] |  | 
12 | < 16 | < 16 | C[C@H](N)CCCc1cc(Cl)c(F)c(-c2cc3cn(-c4ccc([C@@H]5COC[C@H](CCNC(=N)N)N5)cc4)c(=O)nc3[nH]2)c1 [Compound 384] |  | 
13 | < 16 | < 16 | C[C@H](N)CCCc1cc(Cl)c(F)c(-c2cc3cn(-c4ccc([C@@H]5CCO[C@@H](CCCNC(=N)N)C5)cc4)c(=O)nc3[nH]2)c1 [Compound 523] |  | 
14 | < 16 | < 16 | C=C[C@@H](C[C@H](C)NCc1ccc(-n2cc3cc(-c4cc(CCC[C@H](C)N)cc(Cl)c4F)[nH]c3nc2=O)cc1)NC(=N)N [Compound 336] |  | 
15 | < 16 | < 16 | C[C@H](N)CCCc1cc(OC(F)(F)F)c(F)c(-c2cc3cn(-c4ccc([C@@H]5COC[C@H](CCNC(=N)N)N5)cc4)c(=O)nc3[nH]2)c1 [Compound 357] |  | 
16 | < 16 | < 16 | C[C@H](N)CCCc1cc(Cl)c(F)c(-c2cc3cn(-c4ccc([C@@H]5CCC[C@@H](CCn6ccnc6)N5)cc4)c(=O)nc3[nH]2)c1 [Compound 533] |  | 
17 | < 16 | < 16 | C[C@@H](CN)CN1CC[C@@H](c2cc3cn(-c4ccc(C(=N)NCC[C@H](C)N)cc4)c(=O)nc3[nH]2)C1 [Compound 581] |  | 
18 | < 16 | < 16 | C[C@H](N)CCCc1cc(Cl)c(F)c(-c2cc3cn(-c4ccc([C@H](C)NCC[C@@H](CN5CCOCC5)NC(=N)N)cc4)c(=O)nc3[nH]2)c1 [Compound 341] |  | 
19 | < 16 | < 16 | Cc1cc(OC[C@@H](CCNC(=N)N)NCc2ccc(-n3cc4cc(-c5cc(CCC[C@H](C)N)cc(Cl)c5F)[nH]c4nc3=O)cc2)no1 [Compound 518] |  | 
20 | < 16 | < 16 | C[C@H](N)CCCc1cc(-c2cc3cn(-c4ccc([C@@H]5CCC[C@@H](CCN)N5)cc4)c(=O)nc3[nH]2)cc(C(F)(F)F)c1 [Compound 485] |  | 

Row | MIC [1, 3] [mg/L] | MIC [2, 4] [mg/L] | Compound | MIC [1] [mg/L] | MIC ([2]; ATCC25922, read-out: MIC E. Coli) [mg/L]
21 | < 16 | > 16 | COc1ccc(Cn2cc([C@@H]3COC[C@H](c4ccc(-n5cc6cc(-c7cc(CCC[C@H](C)N)cc(Cl)c7F)[nH]c6nc5=O)cc4)N3)nn2)cc1 [Compound 392] |  | 
22 | < 16 | > 16 | C[C@H](N)CCCc1cc(OC(F)(F)F)c(F)c(-c2cc3cn(-c4ccc(C(O)[C@@H]5C[C@@H](N)CN5)cc4)c(=O)nc3[nH]2)c1 (stereo partly drawn) [Compound 449] |  | 
23 | < 16 | < 16 | COC[C@H](CCN[C@@H](C)c1ccc(-n2cc3cc(-c4cc(CCC[C@H](C)N)cc(Cl)c4F)[nH]c3nc2=O)cc1)NC(=N)N [Compound 345] |  | 
24 | < 16 | < 16 | C[C@H](N)CCCc1cc(Cl)c(F)c(-c2cc3cn(-c4ccc(CN5CC[C@H](CN6CCOCC6)NC5=N)cc4)c(=O)nc3[nH]2)c1 [Compound 418] |  | 
25 | < 16 | < 16 | C[C@H](N)CCCc1cc(Cl)c(F)c(-c2cc3cn(-c4ccc([C@@H](N)CCN)cc4)c(=O)nc3[nH]2)c1 [Compound 425] |  | 
26 | < 16 | < 16 | C[C@H](N)CCCc1cc(OC(F)(F)F)c(F)c(-c2cc3cn(-c4ccc([C@@H]5CC(CCNC(=N)N)CN5)cc4)c(=O)nc3[nH]2)c1 (stereo partly drawn) [Compound 408] |  | 
27 | < 16 | < 16 | C[C@H](N)CCCc1cc(OC(F)(F)F)c(F)c(-c2cc3cn(-c4ccc([C@@H]5CCC[C@H](CCNC(=N)N)N5)cc4)c(=O)nc3[nH]2)c1 [Compound 439] |  | 
28 | > 16 | > 16 | C[C@H](N)CCCc1cc(Cl)c(F)c(-c2cc3cn(-c4ccc([C@@H]5CCC[C@@H](Cc6ncc(N)s6)N5)cc4)c(=O)nc3[nH]2)c1 [Compound 529] |  | 
29 | < 16 | < 16 | C[C@H](NCCCN)c1ccc(-n2cc3cc(-c4cc(CCC[C@H](C)NC(=N)N)cc(Cl)c4F)[nH]c3nc2=O)cc1 [Compound 324] |  | 
30 | < 16 | < 16 | C[C@H](N)CCCc1cc(OC(F)(F)F)c(F)c(-c2cc3cn(-c4ccc(CNCC[C@H](CN5CCOCC5)NC(=N)N)cc4)c(=O)nc3[nH]2)c1 [Compound 328] |  | 
31 | < 16 | < 16 | N=C(N)NCC[C@H](CO)NCc1ccc(-n2cc3cc(-c4cc(CCC[C@@H](N)CO)cc(Cl)c4F)[nH]c3nc2=O)cc1 [Compound 377] |  | 
32 | < 16 | < 16 | CC(=N)NCC[C@@H]1CCC[C@@H](c2ccc(-n3cc4cc(-c5cc(CCC[C@H](C)N)cc(Cl)c5F)[nH]c4nc3=O)cc2)N1 [Compound 516] |  | 
33 | < 16 | < 16 | C[C@H](N)CCCc1cc(Cl)c(F)c(-c2cc3cn(-c4ccc([C@H]5CCC[C@H](CCNC(=N)N)N5)cc4)c(=O)nc3[nH]2)c1 [Compound 433] |  | 
34 | < 16 | < 16 | C[C@H](N)CCCc1cc(OC(F)(F)F)c(F)c(-c2cc3cn(-c4ccc([C@@H](N)CCNC(=N)N)cc4)c(=O)nc3[nH]2)c1 [Compound 428] |  | 
35 | < 16 | < 16 | C[C@H](N)CCCc1cc(OC(F)(F)F)c(F)c(-c2cc3cn(-c4ccc([C@H](N)CCCNC(=N)N)cc4)c(=O)nc3[nH]2)c1 [Compound 457] |  | 
36 | < 16 | < 16 | C[C@H](N)CCCc1cc(Cl)c(F)c(-c2cc3cn(-c4ccc([C@@H]5CCC[C@@H](CCNc6ncc[nH]6)N5)cc4)c(=O)nc3[nH]2)c1 [Compound 552] |  | 
37 | < 16 | < 16 | C[C@H](N)CCCc1cc(Cl)c(F)c(-c2cc3cn(-c4ccc([C@H](C)NCC[C@@H]5COC(=O)N5)cc4)c(=O)nc3[nH]2)c1 [Compound 386] |  | 
38 | < 16 | < 16 | C[C@H](CN)CN1CC[C@@H](c2cc3cn(-c4ccc([C@H](C)NCCCNC(=N)N)cc4)c(=O)nc3[nH]2)C1 [Compound 570] |  | 
39 | < 16 | < 16 | C[C@H](N)CCCc1cc(Cl)c(F)c(-c2cc3cn(-c4ccc([C@H](N)CCCN)cc4)c(=O)nc3[nH]2)c1 [Compound 454] |  | 
